Results: patent US5221675A, “Aza-spirocyclic compounds that enhance cholinergic neurotransmission” (Abbott Laboratories, priority 1991, dated 1993)
pKi: −log10 of the molar value.

Experiments:
[1] = in vivo; cited from earlier work
[2] = test system: Rat striatal muscarinic receptors; experiment: Agonist intrinsic activity: inhibition of forskolin-activated [3H]cAMP in dissociated rat striatum; format: cell-based; conditions: selective muscarinic antagonist
Text: Rat striatal muscarinic receptors are coupled to the inhibition of the conversion of adenosine triphosphate (ATP) to cyclic adenosine monophosphate (cAMP). […] The ATP stores in dissociated rat striatum were labeled with [^3 H]adenine and [^3 H]-cAMP levels were elevated with 10 um forskolin.

[3] = biological target: neuronal nicotinic cholinergic receptor; experiment: [3H]-MCC binding to nicotinic receptors in whole rat brain membranes; conditions: for pKi: Table 3, [3H]-MCC, rat brain membranes, 4° C., read-out: Nic Ki (binding to the nicotinic receptor); for Nic % Enhancement @ Max. Effect: at 0.0001 (mM) as printed; for Nic Conc. @ Max. Effect: concentration giving maximal enhancement of [3H]-MCC binding; for Affinity for M1/M2 muscarinic and nicotinic neuronal binding sites: muscarinic (M1 or M2) and nicotinic; for Affinity for M1/M2 muscarinic and nicotinic neuronal binding sites / Binding of other nicotinic ligands to the neuronal nicotinic receptor: words
Protocol: Binding of [^3 H]methylcarbamylcholine ([^3 H]-MCC) to nicotinic receptors is accomplished using crude synaptic membranes prepared from whole rat brain (Snyder and Enna, Brain Res. 1975, 100:81). Washed membranes are stored at -80° C. prior to use. Frozen aliquots are slowly thawed and resuspended in 20 volumes of buffer (containing: 120 mM NaCl, 5 mM KCl, 2 mM MgCl2, 2 mM CaCl2, and 50 mM Tris-Cl, pH 7.4 @4° C.). After centrifuging at 20K×9 for 15 minutes, the pellets are resuspended in 30 volumes of buffer. Homogenate ([…]) is added to triplicate tubes containing concentrations of test compound and [^3 H]-MCC (3 nM) in a final volume of […]. Samples are incubated for 60 minutes at 4° C., then rapidly filtered through Whatman GF/B filters presoaked in 0.5% polyethylimine using 3×4 ml of ice-cold buffer. The filters are counted in 4 mL of Ecolume (ICN). Nonspecific binding is determined in the presence of 10 […] and values were expressed as a percentage of total binding. IC50 values are determined with the ALLFIT curve-fitting program and IC50 values are converted to Ki values using the Cheng and Prusoff correction, (Ki=IC50 /(1+[ligand]/Kd ligand). Alternatively, data are expressed as a percentage of the total specific binding.

[4] = test system: male Sprague-Dawley rats; experiment: Mean arterial pressure, resting CBF and basal forebrain-elicited cortical CBF (laser-Doppler flowmetry); format: in vivo, rat
Protocol: General Surgery for CBF Measurement--Methods for surgical preparation of rats for electrical stimulation of brain and measurement of rCBF have been previously described (Nakai et al., Am. J. Physiol. 1982, 243:226) and are summarized below.
Studies are conducted on male Sprague-Dawley rats that are maintained in a thermally controlled (26°-27° C.) light-cycled (07.00 hour on-019.00 hour off) environment, fed standard rat chow and given water ad libitum. Anesthesia is induced with halothane (3.5%; balance 02) delivered through a nose mask and maintained at 2% during the initial surgery. Thin-wall vinyl catheters (o.d.=0.03 inch) are placed in each femoral artery and vein, and the trachea is cannulated.
Animals are subsequently co-anesthetized with urethane (1.5 g/kg, s.c.) and placed in a stereotaxic frame with the head positioned so that the floor of the IVth ventricle was horizontal (incisor bar position: -11 mm.). After connecting the tracheal cannula to a small-animal respirator, the animals are paralyzed with d-tubocurarine (0.6 mg/kg/h, i.m.), and ventilated (80 cpm) with 100% 02. Arterial pressure (AP) and heart rate (HR) are continuously monitored through one of the arterial catheters connected to a Statham P23Db transducer that is coupled to a chart recorder. The level of anesthesia during surgery or subsequent experimental testing is assessed by the AP response to tail pinch, with increasing levels of arousal giving rise to irregular AP readings. Booster doses of urethane (250 mg/kg, s.c.) are given as needed.
Bilateral craniotomies (approximately 4 mm×11 mm) are performed overlying the frontoparietal cortices taking care to leave the dura intact. Halothane is delivered at a reduced rate of 1% during cranial surgery and discontinued afterward. A small volume (about 0.2 ml) of arterial blood is sampled after completion of all surgery for measurement of PO2, PCO2 and pH by a blood gas analyzer. Arterial blood gases are maintained so that PO2 was greater than 100 mm Hg, PCO2 =33-38 mm Hg, and pH=7.35-7.45. Maintaining these values is accomplished by adjusting the stroke volume of the ventilator. Once appropriate physiological parameters are obtained (approximately 30 min), the experimental protocol is initiated.
Electrical Stimulation of the Basal Forebrain (BF)--The BF is stimulated with cathodal current delivered through a stainless steel concentric bipolar electrode ([…]) made by Rhodes Medical Instruments (Model SNEX-100). Electrical pulses are generated by a square wave stimulator (Grass, Model S-88) and constant current is passed through a photoelectric stimulus-isolation unit (Grass, Model PSIU6). The stimulus current is measured on an oscilloscope by continuously displaying the voltage drop across a 10-ohm resistor.
The procedure for eliciting an increased cortical CBF response requires the stereotaxic placement of the stimulating electrode into the BF. For positioning, the electrode is inclined posteriorly to 18 degrees, and the stereotaxic coordinates used were 5.0 mm posterior to, and 2.6 mm lateral to bregma (stereotaxic zero reference point). […] These parameters have been shown previously to elicit maximal increases in cortical CBF (Arneric, Excerpta Medica International Congress Series, Vol. 869:381, 1989). The region of the BF that selectively affects cortical CBF is restricted, with electrode movements of 0.5 mm dorsal or ventral to this site eliciting potent vasodepressor responses in addition to the increases in CBF. […] When CBF increases of approximately 100% or greater are repeatedly obtained in the absence of significant changes in AP (<10 mm Hg) or HR (<10 beats/min.), and when the perfusion rate is stable in the absence of BF stimulation, the experimental testing is started.
CBF Measurement with Laser--Dopler Flowmetry (LDF)--The principles and technical aspects of LDF are presented in detail elsewhere (Bonner et al., Appl. Opt. 1981, 20:2097; Stern et al., Am. J. Physiol. 1977, 232:H441). […]

[5] = biological target: M2 muscarinic receptor (Rattus norvegicus, UniProt P10980); format: binding; conditions: read-out: M2 Ki; Table 3
Sequence of M2 muscarinic receptor (P10980 whole entry): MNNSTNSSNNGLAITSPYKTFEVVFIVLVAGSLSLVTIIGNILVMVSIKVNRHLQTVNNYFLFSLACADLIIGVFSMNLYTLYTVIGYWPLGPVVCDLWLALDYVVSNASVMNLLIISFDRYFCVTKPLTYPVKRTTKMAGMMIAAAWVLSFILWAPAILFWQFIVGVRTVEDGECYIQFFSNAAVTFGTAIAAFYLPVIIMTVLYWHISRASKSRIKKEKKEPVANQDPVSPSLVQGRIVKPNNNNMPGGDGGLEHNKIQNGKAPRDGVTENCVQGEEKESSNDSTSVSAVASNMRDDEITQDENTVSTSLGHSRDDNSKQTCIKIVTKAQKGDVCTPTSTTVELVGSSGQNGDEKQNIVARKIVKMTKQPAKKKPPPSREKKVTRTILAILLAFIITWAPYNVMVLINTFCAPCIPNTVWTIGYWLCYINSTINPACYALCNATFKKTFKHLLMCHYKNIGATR

[6] = biological target: T1, M1 muscarinic receptor (Rattus norvegicus, UniProt P08482); experiment: Competition with [3H]pirenzepine at cortical M1 muscarinic receptors; format: binding; conditions: Table 3; read-out: M1 Ki
T1 construct: from tissue; host or cells: adult rat fronto-parietal cortex membranes (homogenate)
T1 sequence (P08482 1-460): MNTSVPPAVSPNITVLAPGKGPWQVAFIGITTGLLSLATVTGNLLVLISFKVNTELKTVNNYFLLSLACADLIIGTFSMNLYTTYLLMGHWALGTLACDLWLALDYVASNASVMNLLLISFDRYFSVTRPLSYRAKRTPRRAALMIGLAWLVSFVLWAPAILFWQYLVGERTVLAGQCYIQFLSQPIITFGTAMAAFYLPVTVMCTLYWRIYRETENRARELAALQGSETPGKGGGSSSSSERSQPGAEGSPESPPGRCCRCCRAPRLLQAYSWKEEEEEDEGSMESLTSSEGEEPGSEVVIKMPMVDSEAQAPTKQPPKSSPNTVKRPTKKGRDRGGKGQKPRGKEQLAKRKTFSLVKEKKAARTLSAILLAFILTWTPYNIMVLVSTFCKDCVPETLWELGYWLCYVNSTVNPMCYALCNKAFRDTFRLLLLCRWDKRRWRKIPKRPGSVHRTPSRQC

[7] = 0.01 mg/kg, iv, mean of three experiments

Structure (SMILES) | pKi [3] | Nic % Enhancement @ Max. Effect [3] | Nic Conc. @ Max. Effect [3] [mM] | Affinity for M1/M2 muscarinic and nicotinic neuronal binding sites [3] | Binding of other nicotinic ligands to the neuronal nicotinic receptor [3] | pKi [5] | pKi [6] | other results
C[N+](C)(C)CCOC(N)=O [carbachol] | – | – | – | – | – | – | – | CNS penetration [1]: poor CNS penetration
COC(=O)C1=CCCN(C)C1 [arecoline] | – | – | – | – | – | – | – | Pharmacokinetics [1]: unfavorable pharmacokinetics
CN1[C@@H]2CC[C@H]1C[C@@H](OC(=O)C(CO)c1ccccc1)C2 (some centres unmarked) [atropine, reference compound] | – | – | – | – | – | – | – | Blockade of all agonist responses [2]: fully blocked
CN1C(=O)N(c2ccccc2)C2(CCNCC2)C1=O.Cl [Example 3, 3-Methyl-1-phenyl-1,3,8-triazaspiro[4,5]decane-2,4-dione hydrochloride] | < 4.00 | +42% | 0.0001 | little affinity | potently enhance the binding of other nicotinic ligands | < 4.00 | < 4.00 | BF-Elicited CBF Response, % Change from Pre-Drug CONTROL [4, 7]: +39%; MAP, % Change from Pre-Drug CONTROL [4, 7]: +5%; Resting CBF, % Change from Pre-Drug CONTROL [4, 7]: +23%; Effects on MAP ([4]; 0.01-10.0 mg/kg iv): No remarkable effects on MAP; Effects on blood pressure ([4]; iv): no overt effects on blood pressure; Resting CBF and BF-elicited CBF response ([4]; low concentrations, iv, words): effective in enhancing resting CBF and the BF-elicited CBF response
CN1CCC2(CC1)C(=O)N(C)C(=O)N2c1ccccc1 [Example 4, 3,8-Dimethyl-1-phenyl-1,3,8-triazaspiro[4,5]decane-2,4-dione] | < 4.00 | +33% | 0.0001 | little affinity | potently enhance the binding of other nicotinic ligands | < 4.00 | 4.55 | –
